Source: patent publication US6506747B1, “Substituted 1-(4-aminophenyl)pyrazoles and their use as anti-inflammatory agents” (Boehringer Ingelheim Pharmaceuticals, Inc., priority 1998, dated 2003)

test system: not given; test: not given; conditions: not given

| SMILES | melting point [°C] |
| --- | --- |
| CCc1cc(C(F)(F)F)nn1-c1ccc(NC(=O)c2c(C)ncn2C)cc1 [Example 1207] | 179 to 182 |
| FC(F)(F)c1cc(Cl)n(-c2ccc(Nc3nccc4ccccc34)cc2)n1 [Example 683] | 244 to 254 |
| O=C(Nc1ccc(-n2nc(C(F)(F)F)cc2C(F)(F)F)cc1)N1CCOCC1 [Example 726] | 185 to 186 |
| Cc1cc(C(F)(F)F)nn1-c1ccc(NC(=O)C2CCCC2)cc1 [Example 780] | 176 to 178 |
| CCc1cc(C(C)C)nn1-c1ccc(Nc2ncccc2C#N)cc1 [Example 1160] | 123 to 124 |
| CC(=O)Nc1ccc(-n2nc(C(F)(F)F)cc2C(F)(F)F)cc1 [Example 547] | 175 to 176 |
| FC(F)(F)c1cc(C(F)(F)F)n(-c2ccc(Nc3nccc4ccccc34)cc2)n1 [Example 648] | 205 to 220 |
| CCc1cc(C(C)C)nn1-c1ccc(NCc2c(C)noc2C)cc1 [Example 1201] | 87 to 88 |
| N#Cc1ccc(Nc2ccc(-n3nc(C(F)(F)F)cc3C(F)(F)F)cc2)cc1 [Example 864] | 247 |
| O=C(Nc1ccc(-n2nc(C(F)(F)F)cc2C(F)(F)F)cc1)c1cnccn1 [Example 698] | 188 to 189 |
| FC(F)(F)c1cc(C(F)(F)F)n(-c2ccc(Nc3ccncn3)cc2)n1 [Example 886] | 218 to 219 |
| FC(F)(F)c1cc(C(F)(F)F)n(-c2ccc(Nc3nc4ccccc4[nH]3)cc2)n1 [Example 644] | 220 to 222 |
| C[S+]([O-])c1cc(-c2ccco2)nn1-c1ccc(NC(=O)c2ccc(Cl)cc2)cc1 (stereo not drawn) [Example 1101] | 110 |
| CCc1cc(C(F)(F)F)nn1-c1ccc(NCc2ccc(C)s2)cc1 [Example 1248] | 87 to 89 |
| O=C(Nc1ccc(-n2nc(C(F)(F)F)cc2C(F)(F)F)cc1)c1ccnc2ccccc12 [Example 711] | 204 to 205 |
| CN(C)Cc1cc(C(F)(F)F)n(-c2ccc(NC(=O)c3ccc(Cl)cc3)cc2)n1 [Example 1128] | 177 to 178 |
| CSc1cc(-c2ccco2)nn1-c1ccc(NC(=O)c2ccc(Cl)cc2)cc1 [Example 1077] | 176 to 178 |
| O=C(Nc1ccc(-n2nc(C(F)(F)F)cc2C(F)(F)F)cc1)C1CCCNC1 (stereo not drawn) [Example 688] | 231 to 233 |
| CCCCCC(=O)Nc1ccc(-n2nc(C(F)(F)F)cc2C(F)(F)F)cc1 [Example 584] | 107 to 109 |
| FC(F)(F)c1cc(C(F)(F)F)n(-c2ccc(NCc3ccc(Cl)cc3)cc2)n1 [Example 548] | 89 to 90 |
| CCc1cc(C(C)C)nn1-c1ccc(NC(=O)c2cnccn2)cc1 [Example 1312] | 169 to 171 |
| CCc1cc(C(F)(F)F)nn1-c1ccc(NCc2sccc2C)cc1 [Example 1247] | 93 to 95 |
| O=C(Nc1ccc(-n2nc(C(F)(F)F)cc2C(F)(F)F)cc1)c1cnc2ccccc2n1 [Example 712] | 196 |
| O=C(Nc1ccc(-n2nc(C(F)(F)F)cc2C(F)(F)F)cc1)c1ccccc1 [Example 538] | 243 to 245 |
| CCc1cc(C(C)C)nn1-c1ccc(NC(=O)c2c(C)noc2C)cc1 [Example 1200] | 173 to 175 |
| CCNc1ccc(-n2nc(C(F)(F)F)cc2C(F)(F)F)cc1 [Example 613] | 54 |

test system: IL-2 promoter/enhancer; test: IL-2 promoter assay (luciferase reporter in Jurkat J.1F/C6 cells); assay type: cell-based; conditions: Homo sapiens; J.1F/C6 Jurkat cell line, IL-2 promoter luciferase reporter; read-out: IC50, inhibition of luciferase activity induced by ionomycin and PMA
Text: The IL-2 promoter assay measures transcriptional activation of a luciferase reporter gene which has been placed under control of the IL-2 promoter/enhancer. All the known regulatory features of the IL2gene are contained within a 300 bp sequence immediately upstream of the open reading frame. The region −328 to +35 relative to the transcription start site of the IL-2 gene is obtained by RT-PCR of human genomic DNA and is subcloned into the promoterless luciferase reporter vector pGL2-Basic (Promega). The resulting construct, pIL2P-luc, and a vector containing a neomycin resistance gene, pcDNA/Neo (Invitrogen), are linearized and stably transfected into Jurkat cells (a human T cell line) by electroporation. […] For screening compounds, the cells are pelleted by centrifugation, washed once with PBS, resuspended in RPMI (phenol red-free) containing 5% FBS, and dispensed into 96-well, white microtiter plates (Packard) at 50,000 cells/well. The cells are pre-incubated with compounds (1 μg/ml) for 15 min prior to addition of ionomycin (1 μg/ml) and PMA (10 ng/ml) in a final volume of 100 μl. Following a 5 hr incubation at 37° C. in a humidified incubator, 100 μl of Luc-Lite lysis buffer/luciferase assay buffer (Promega) is added and luminescence measured using a Packard TopCount scintillation counter/luminometer.

| SMILES | IC50 [nM] |
| --- | --- |
| C=CC[C@@H]1/C=C(\C)C[C@H](C)C[C@H](OC)[C@H]2O[C@@](O)(C(=O)C(=O)N3CCCC[C@H]3C(=O)O[C@H](/C(C)=C/[C@@H]3CC[C@@H](O)[C@H](OC)C3)[C@H](C)[C@@H](O)CC1=O)[C@H](C)C[C@@H]2OC [FK506] | 0.3 |
